Tests used:
salivary amylase [1] = biological target: T1, salivary amylase (Homo sapiens, UniProt P0DUB6); assay: Amylase assay, Km determination, salivary amylase; type: biochemical
T1 construct: purchased Sigma (St. Louis, Mo.)
T1 sequence (P0DUB6 16-511): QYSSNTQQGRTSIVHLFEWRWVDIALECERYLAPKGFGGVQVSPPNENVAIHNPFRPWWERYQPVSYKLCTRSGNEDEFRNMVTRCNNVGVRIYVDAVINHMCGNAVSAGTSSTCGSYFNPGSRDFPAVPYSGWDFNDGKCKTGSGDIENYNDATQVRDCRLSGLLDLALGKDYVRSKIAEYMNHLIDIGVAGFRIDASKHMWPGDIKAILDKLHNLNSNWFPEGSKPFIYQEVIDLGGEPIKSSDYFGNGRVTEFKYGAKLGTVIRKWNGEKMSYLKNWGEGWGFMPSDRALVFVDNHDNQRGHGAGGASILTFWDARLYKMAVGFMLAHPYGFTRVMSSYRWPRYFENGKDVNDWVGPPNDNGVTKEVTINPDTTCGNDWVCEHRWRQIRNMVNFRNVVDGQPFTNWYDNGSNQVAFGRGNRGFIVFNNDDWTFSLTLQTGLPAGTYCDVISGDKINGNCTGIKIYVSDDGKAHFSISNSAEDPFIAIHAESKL
Experimental: (§1) Amylase assays using oligosaccharide substrates were automated using a Cobas Fara analyzer (Roche, Basel, Switzerland). Unless indicated, assay temperature was 37° C., and absorbance changes were measured at 405 nm every minute over a 20 minute period. Assay buffer was either 52.5 mmol/L 4-(2-hydroxyethyl)-1-piperazine-ethanesulfonic acid (HEPES) buffer, pH 7.15, 87 mmol/L sodium chloride, 12.6 mmol/L magnesium chloride, 0.075 mmol/L calcium chloride (HEPES buffer) or 50 mmol/L MES, pH 6.0, 350 mmol/L sodium chloride, 6 mmol/L calcium acetate, 900 mmol/L KSCN (MES buffer). Amylases were diluted into assay buffer containing 1 mg/mL rabbit albumin. Final reaction volumes were 200 μL and consisted of 3 solutions, R1, R2, and R3. […] Depending upon the assay, R2 and R3 contained either amylase or substrate. R1 and R2 solutions were mixed for 10 seconds prior to the addition of R3. For immunoinhibition studies, antibodies were preincubated with amylase (R2) for 30 minutes at room temperature prior to the addition of substrate (R3). Unless indicated, final concentrations of MABs were 10 mg/L. Reaction blanks were determined by measuring the absorbance of substrate or enzyme alone at 405 nm. When EtG7pNP or mPEG-EtG7pNP were used as substrates, α-glucosidase was included in the blank measurement. Differences between the test samples and reagent blanks were determined. Activity of stock solutions of amylase was based on activity measured with a Hitachi 917 analyzer using a Roche kit (Cat. No 1876473) (Indianapolis, Ind.) which uses EtG7pNP as the substrate. For Km determinations, 4 or 5 different substrate concentrations (0.05 mmol/L to 6 mmol/L) with salivary (4-20 U/L) or pancreatic (4-40 U/L) amylase were used.

pancreatic amylase [2] = biological target: T2, pancreatic amylase (Homo sapiens, UniProt P04746); assay: Amylase assay, Km determination, pancreatic amylase; type: biochemical
T2 construct: purchased Scripps Laboratories (San Diego, Calif.)
T2 sequence (P04746 16-511): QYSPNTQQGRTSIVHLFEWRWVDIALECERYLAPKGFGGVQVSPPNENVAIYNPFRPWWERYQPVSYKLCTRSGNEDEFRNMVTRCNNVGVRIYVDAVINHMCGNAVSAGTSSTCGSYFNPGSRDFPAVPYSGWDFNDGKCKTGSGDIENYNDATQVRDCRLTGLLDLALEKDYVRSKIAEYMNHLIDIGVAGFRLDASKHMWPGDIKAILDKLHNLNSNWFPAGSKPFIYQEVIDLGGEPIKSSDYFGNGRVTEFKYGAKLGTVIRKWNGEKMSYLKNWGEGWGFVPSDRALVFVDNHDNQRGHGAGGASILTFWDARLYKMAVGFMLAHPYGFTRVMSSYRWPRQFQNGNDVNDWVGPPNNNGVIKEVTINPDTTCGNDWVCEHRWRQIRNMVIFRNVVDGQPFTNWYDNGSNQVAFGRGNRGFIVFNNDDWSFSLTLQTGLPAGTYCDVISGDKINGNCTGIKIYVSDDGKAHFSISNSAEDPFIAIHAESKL
Experimental: as §1, with “Assay buffer was either 52.5 mmol/L 4-(2-hydroxyethyl)-1-piperazine-ethanesulfonic acid (HEPES) buffer, pH 7.15, 87 mmol/L sodium chloride, 12.6 mmol/L magnesium chloride, 0.075 mmol/L calcium chloride (HEPES buffer) or 50 mmol/L MES, pH 6.0, 350 mmol/L sodium chloride, 6 mmol/L calcium acetate, 900 mmol/L KSCN (MES buffer).” left out

salivary amylase [3] = biological target: T1, salivary amylase; assay: Extent of cleavage of substrates by excess salivary amylase; type: biochemical
Experimental: Substrates were diluted into HEPES buffer and absorbances were recorded between 250 nm and 500 nm. To determine the maximum amount of substrate that could be cleaved with amylase, substrates were incubated with 60 units/mL of salivary amylase. When EtG7pNP and mPEG-EtG7pNP were used, 4 units/mL of α-glucosidase were included in the incubation.
To determine the maximal amount of mPEG-coupled and uncoupled substrate that could be cleaved by amylase, substrates were incubated with excess salivary amylase and the amount of free chromophore released was determined by measuring absorptions between 250 nm and 500 nm during amylase digestion. […] Incubations were monitored until endpoints of reactions were approached. α-Glucosidase was included in the incubation when EtG7pNP and mPEG-EtG7pNP were used as substrates.

salivary amylase [4] = biological target: T1, salivary amylase; assay: Immunoinhibition by polyclonal antiamylase antisera, salivary amylase; type: biochemical
Experimental: (§2) Amylase assays using oligosaccharide substrates were automated using a Cobas Fara analyzer (Roche, Basel, Switzerland). Unless indicated, assay temperature was 37° C., and absorbance changes were measured at 405 nm every minute over a 20 minute period. Assay buffer was either 52.5 mmol/L 4-(2-hydroxyethyl)-1-piperazine-ethanesulfonic acid (HEPES) buffer, pH 7.15, 87 mmol/L sodium chloride, 12.6 mmol/L magnesium chloride, 0.075 mmol/L calcium chloride (HEPES buffer) or 50 mmol/L MES, pH 6.0, 350 mmol/L sodium chloride, 6 mmol/L calcium acetate, 900 mmol/L KSCN (MES buffer). Amylases were diluted into assay buffer containing 1 mg/mL rabbit albumin. […] Unless indicated, final concentrations of MABs were 10 mg/L. Reaction blanks were determined by measuring the absorbance of substrate or enzyme alone at 405 nm. […] Differences between the test samples and reagent blanks were determined. Activity of stock solutions of amylase was based on activity measured with a Hitachi 917 analyzer using a Roche kit (Cat. No 1876473) (Indianapolis, Ind.) which uses EtG7pNP as the substrate. […]
(§3) The effects of two different polyclonal antiamylase immunoglobulin preparations on salivary and pancreatic amylase activity using mPEG-coupled and uncoupled substrates were tested. […] 100% amylase activity was determined in the absence of any antibody.

pancreatic amylase [5] = biological target: T2, pancreatic amylase; assay: Immunoinhibition by polyclonal antiamylase antisera, pancreatic amylase; type: biochemical
Experimental: as §2, §3

salivary amylase [6] = biological target: T1, salivary amylase; assay: Immunoinhibition by MABs, salivary amylase, oligosaccharide substrates; type: biochemical; conditions: salivary isoenzyme, 20 U/I (G5, G7 substrates) or 600 U/I (G3 substrates), 100% = no MAB; for % activity with MAB 66C7 / % activity with MAB 88E8: MAB 10 mg/L
Experimental: as §1
When both MABs were used, MAB 88E8 concentrations were varied in the presence of 10 mg/L MAB 66C7. At an antibody concentration of 10 mg/L, MAB 88E8 inhibits 98% of salivary amylase activity in HEPES buffer and 34% of salivary amylase activity in MES buffer. MAB 66C7 increases salivary amylase activity in HEPES buffer and has no effect on salivary amylase activity in MES buffer. Using a mixture of MABs 88E8 and 66C7 at concentrations of […], >99% of salivary amylase activity is inhibited in HEPES buffer and 73% of salivary amylase activity is inhibited in MES buffer. When the pH of the MES buffer was increased from 6.0 to 6.5 and the concentration of KSCN was decreased from 900 mmol/L to 300 mmol/L, >97% of salivary amylase activity was inhibited by MAB 88E8.

pancreatic amylase [7] = biological target: T2, pancreatic amylase; assay: Immunoinhibition by MABs, pancreatic amylase, oligosaccharide substrates; type: biochemical; conditions: pancreatic isoenzyme, 40 U/I (G5, G7 substrates) or 400 U/I (G3 substrates), 100% = no MAB; for % activity with MAB 66C7 / % activity with MAB 88E8: MAB 10 mg/L
Experimental: as §1

[8] = test system: pancreatic and salivary amylase; assay: Lag phase of amylase reaction; type: biochemical, human; conditions: purified pancreatic and salivary amylase; Cobas Fara analyzer
Experimental: as §2, with “albumin. Final reaction volumes were 200 μL and consisted of 3 solutions, R1, R2, and R3. […] Depending upon the assay, R2 and R3 contained either amylase or substrate. R1 and R2 solutions were mixed for 10 seconds prior to the addition of R3.” for “albumin.”

[9] = 37° C., pH 6.5 in MES buffer containing 300 mM KSCN

CC1OC[C@H]2O[C@H](O[C@H]3[C@H](O)[C@@H](O)[C@@H](O[C@H]4[C@H](O)[C@@H](O)[C@@H](O[C@H]5[C@H](O)[C@@H](O)[C@@H](O[C@H]6[C@H](O)[C@@H](O)[C@@H](O[C@H]7[C@H](O)[C@@H](O)[C@@H](O[C@H]8[C@H](O)[C@@H](O)[C@@H](Oc9ccc([N+](=O)[O-])cc9)O[C@@H]8CO)O[C@@H]7CO)O[C@@H]6CO)O[C@@H]5CO)O[C@@H]4CO)O[C@@H]3CO)[C@H](O)[C@@H](O)[C@@H]2O1 (stereo partly drawn) [EtG7pNP, 4,6-O-ethylidene p-nitrophenyl-α-D-maltoheptaoside]
Km (salivary amylase [1]; 37° C., HEPES buffer pH 7.15): 0.13 mM
Km (pancreatic amylase [2]; 37° C., HEPES buffer pH 7.15): 170 µM
Substrate cleaved by salivary amylase and α-glucosidase (salivary amylase [3]; digestion for 60 minutes): ~90%
Fold lower concentration of antibody inhibiting cleavage than for G3ClpNP (salivary amylase [4]): > 50 fold
Fold lower concentration of antibody inhibiting cleavage than for G3ClpNP (pancreatic amylase [5]): ~3 fold
% activity with MAB 88E8 + 66C7 (salivary amylase [6]): 2%
% activity with MAB 66C7 (salivary amylase [6]): 105%
% activity with MAB 88E8 (salivary amylase [6]): 6%
% activity with MAB 88E8 + 66C7 (pancreatic amylase [7]): 96%
% activity with MAB 66C7 (pancreatic amylase [7]): 105%
% activity with MAB 88E8 (pancreatic amylase [7]): 96%

O=[N+]([O-])c1ccc(O[C@H]2O[C@H](CO)[C@@H](O[C@H]3O[C@H](CO)[C@@H](O[C@H]4O[C@H](CO)[C@@H](O)[C@H](O)[C@H]4O)[C@H](O)[C@H]3O)[C@H](O)[C@H]2O)c(Cl)c1 [Substrate G3ClpNP, 2-chloro-p-nitrophenol-α-D-maltotrioside]
Km (salivary amylase [1]; 25° C., HEPES buffer pH 7.15): 4.6 mM
Km (salivary amylase [1]; 37° C., HEPES buffer pH 7.15): 6.9 mM
Km (salivary amylase [1]; [9]): 2 mM
Km (pancreatic amylase [2]; 25° C., HEPES buffer pH 7.15): 1300 µM
Km (pancreatic amylase [2]; 37° C., HEPES buffer pH 7.15): 2200 µM
Km (pancreatic amylase [2]; [9]): 610 µM
CNP released by salivary amylase (salivary amylase [3]; excess salivary amylase, 40 minutes at room temperature): ~90%
Lag phase, time to reach maximal rates [8]: little or no lag phase
% activity with MAB 88E8 + 66C7 (salivary amylase [6]): 1%
% activity with MAB 66C7 (salivary amylase [6]): 104%
% activity with MAB 88E8 (salivary amylase [6]): 3%
% activity with MAB 88E8 + 66C7 (pancreatic amylase [7]): 103%
% activity with MAB 66C7 (pancreatic amylase [7]): 117%
% activity with MAB 88E8 (pancreatic amylase [7]): 103%

Reference: patent US20030186345A1, “Macromolecular enzyme substrates” (priority 2003, published 2003)
